Measured values from the supplement of paper PMC10331698.
± gives the standard deviation of the averaged measurements.

Legend:
Experiment in all cases: level (log10 ratio to DMSO vehicle control); higher = higher biomarker level / cell amount than vehicle control
Settings in all cases: in DMSO
[1] = compound: Cc1ccc(S(=O)(=O)OCC(F)(F)C(F)(F)C(F)(F)C(F)(F)C(F)(F)C(F)F)cc1 [1H,1H,7H-Perfluoroheptyl 4-methylbenzenesulfonate]
Procedure: (§1)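 BioMAP Diversity Plus panel of 12 human primary cell co-culture systems (3C, 4H, LPS, SAg, BT, BF4T, BE3C, CASM3C, HDF3CGF, KF3CT, MyoF, Mphg). Compounds were added 1 h before stimulation and left for 24 h (MyoF 48 h; BT 72 h for soluble read-outs or 6 d for IgG). Biomarkers were read by ELISA, cytotoxicity by SRB, PBMC viability and proliferation by Alamar Blue. Each well value was divided by the mean of 8 DMSO control wells on the same plate and log10 transformed; duplicate blinded samples were tested at 4 concentrations.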

[2] = compound: O=P(O)(O)CCC(F)(F)C(F)(F)C(F)(F)C(F)(F)C(F)(F)C(F)(F)F [2-(Perfluorohexyl)ethylphosphonic acid]
Procedure: as §1

[3] = compound: C=CC(=O)OCC(F)(F)C(F)(F)C(F)(F)C(F)(F)C(F)(F)C(F)(F)C(F)(F)C(F)F [1H,1H,9H-Perfluorononyl acrylate]
Procedure: as §1

Perfluoropinacol = compound: OC(C(F)(F)F)(C(F)(F)F)C(O)(C(F)(F)F)C(F)(F)F [Perfluoropinacol]
Procedure: as §1

[4] = compound: OCC(F)(F)C(F)(F)C(F)(F)C(F)(F)C(F)(F)C(F)(F)C(F)(F)C(F)(F)C(F)(F)C(F)(F)C(F)(F)F [11:1 Fluorotelomer alcohol]
Procedure: as §1

[5] = compound: OCC(F)(F)C(F)(F)C(F)(F)C(F)(F)C(F)(F)C(F)(F)C(F)(F)C(F)(F)CO [1H,1H,10H,10H-Perfluorodecane-1,10-diol]
Procedure: as §1

Tetrafluorosuccinic acid = compound: O=C(O)C(F)(F)C(F)(F)C(=O)O [Tetrafluorosuccinic acid]
Procedure: as §1

Test System | level (log10) ([1]; 6700 nM) | level (log10) ([1]; 20000 nM) | level (log10) ([1]; 60000 nM) | level (log10) ([2]; 6700 nM) | level (log10) ([2]; 20000 nM) | level (log10) ([2]; 60000 nM) | level (log10) ([3]; 6700 nM) | level (log10) ([3]; 20000 nM) | level (log10) ([3]; 60000 nM) | level (log10) (Perfluoropinacol; 6700 nM) | level (log10) (Perfluoropinacol; 20000 nM) | level (log10) ([4]; 1100 nM) | level (log10) ([4]; 3300 nM) | level (log10) ([4]; 10000 nM) | level (log10) ([5]; 6700 nM) | level (log10) ([5]; 20000 nM) | level (log10) ([5]; 60000 nM) | level (log10) (Tetrafluorosuccinic acid; 6700 nM) | level (log10) (Tetrafluorosuccinic acid; 20000 nM) | level (log10) (Tetrafluorosuccinic acid; 60000 nM)
BF4T:CCL26/Eotaxin-3 | -0.0095 ± 0.046 | -0.077 ± 0.068 | -0.095 ± 0.018 | -0.0135 ± 0.022 | -0.04 ± 0.0099 | -0.034 ± 0.079 | -0.0095 ± 0.061 | -0.066 ± 0.078 | -0.084 ± 0.018 | -0.108 ± 0.0042 | -0.217 ± 0.0057 | -0.012 ± 0.0042 | -0.003 ± 0.011 | -0.0015 ± 0.0078 | -0.0415 ± 0.042 | -0.134 ± 0.0021 | -0.255 | 0.018 ± 0.04 | -0.02 ± 0.04 | -0.0075 ± 0.015
BF4T:MMP-3 | -0.006 ± 0.0014 | -0.031 ± 0.0014 | -0.018 ± 0.0085 | -0.0205 ± 0.005 | -0.0125 ± 0.022 | -0.002 ± 0.023 | 0.013 ± 0.013 | -0.003 ± 0.045 | 0.021 ± 0.0085 | -0.013 ± 0.04 | -0.008 ± 0.0057 | 0.008 ± 0.0014 | 0.009 ± 0.0057 | 0.0435 ± 0.035 | 0.0015 ± 0.021 | -0.0375 ± 0.026 | -0.105 | 0.0285 ± 0.012 | -0.008 ± 0.028 | 0.012 ± 0.0057
3C:CXCL9/MIG | 0.005 ± 0.011 | -0.008 ± 0.0014 | -0.01 ± 0.0042 | -0.004 ± 0.0071 | -0.003 ± 0.0014 | 0.01 ± 0.025 | 0.009 ± 0.0028 | 0.0005 ± 0.011 | -0.0055 ± 0.005 | -0.005 ± 0.013 | -0.014 ± 0.0085 | -0.001 ± 0.014 | 0.0045 ± 0.0064 | 0.0145 ± 0.016 | -0.0145 ± 0.011 | -0.016 ± 0.0071 | -0.007 | 0.0025 ± 0.015 | -0.0145 ± 0.012 | 0.0035 ± 0.028
SAg:SRB | 0.002 ± 0.0057 | -0.017 ± 0.011 | -0.109 ± 0.02 | -0.008 ± 0.011 | 0.0025 ± 0.013 | -0.0355 ± 0.035 | -0.0035 ± 0.0035 | -0.0055 ± 0.0021 | -0.007 ± 0.021 | -0.0285 ± 0.0078 | -0.123 ± 0.0021 | -0.0415 ± 0.0092 | -0.066 ± 0.0028 | -0.065 ± 0.013 | 0.001 ± 0.018 | -0.0145 ± 0.015 | -0.067 | -0.016 ± 0.023 | -0.015 ± 0.011 | -0.0225 ± 0.015
SAg:CD40 | -0.0125 ± 0.0078 | 0.001 ± 0.031 | -0.0135 ± 0.011 | 0.007 ± 0.0028 | 0.0015 ± 0.00071 | -0.026 ± 0.0099 | -0.027 ± 0.021 | -0.0725 ± 0.023 | -0.133 ± 0.026 | -0.021 ± 0.016 | -0.146 ± 0.013 | -0.038 ± 0.024 | -0.068 | -0.0685 ± 0.042 | -0.0395 ± 0.0078 | -0.0625 ± 0.028 | -0.081 | 0 ± 0.023 | 0.001 ± 0.0014 | -0.018 ± 0.0071
BF4T:PAI-I | -0.0075 ± 0.025 | -0.0295 ± 0.011 | -0.0315 ± 0.0035 | -0.0075 ± 0.0092 | -0.0115 ± 0.0035 | -0.016 ± 0.038 | 0.007 ± 0.0057 | 0.003 ± 0.0085 | 0.0005 ± 0.012 | -0.0315 ± 0.0035 | -0.0845 ± 0.0064 | -0.003 ± 0.011 | -0.003 ± 0.0042 | 0.002 ± 0.027 | -0.021 ± 0.021 | -0.111 ± 0.0021 | -0.156 | -0.0075 ± 0.012 | -0.0025 ± 0.018 | 0.0035 ± 0.00071
